Species: Rattus norvegicus
Assay: DrugMatrix - Regimen: Daily Repeat
Format: toxicity, organism-based, Sprague-Dawley
Set-up: regimen Daily Repeat, gender Male, age 6-8 weeks
Conditions: in vivo, po, route oral GAVAGE, […]; for URIC ACID / ALANINE AMINOTRANSFERASE / ALBUMIN / ALKALINE PHOSPHATASE / ASPARTATE AMINOTRANSFERASE / BLOOD UREA NITROGEN / CARBON DIOXIDE / CHLORIDE / CHOLESTEROL / CREATINE PHOSPHOKINASE / CREATININE / GLUCOSE / LACTATE DEHYDROGENASE / LIPASE / PHOSPHORUS / POTASSIUM / SODIUM / TOTAL BILIRUBIN / TOTAL PROTEIN: tissue Plasma; for ABSOLUTE BASOPHIL / ABSOLUTE EOSINOPHIL / ABSOLUTE LYMPHOCYTE / ABSOLUTE MONOCYTE / ABSOLUTE SEGMENTED NEUTROPHIL / BASOPHIL / EOSINOPHIL / ERYTHROCYTE COUNT / HEMATOCRIT / HEMOGLOBIN / LEUKOCYTE COUNT / LYMPHOCYTE / MEAN CORPUSCULAR HEMOGLOBIN / MEAN CORPUSCULAR HEMOGLOBIN CONCENTRATION / MONOCYTE / NEUTROPHIL / NUCLEATED RED BLOOD CELLS / PLATELET COUNT: tissue Blood
[1] = 0.2 mg/kg, 120 h, dose level Low, time 5 day
[2] = 19 mg/kg, 72 h, dose level High, time 3 day
[3] = 19 mg/kg, 120 h, dose level High, time 5 day

CCOC(=O)C1=C(COCCN)NC(C)=C(C(=O)OC)C1c1ccccc1Cl (stereo unspecified) [AMLODIPINE]
URIC ACID (0.2 mg/kg, 72 h, dose level Low, time 3 day): 1.4 mg/dL | ABSOLUTE BASOPHIL [1]: 0 CELLS/uL | ABSOLUTE EOSINOPHIL [1]: 54 CELLS/uL | ABSOLUTE LYMPHOCYTE [1]: 12693.33 CELLS/uL | ABSOLUTE MONOCYTE [1]: 54 CELLS/uL | ABSOLUTE SEGMENTED NEUTROPHIL [1]: 1132 CELLS/uL | BASOPHIL [1]: 0% | EOSINOPHIL [1]: 0.33% | ERYTHROCYTE COUNT [1]: 5.55 x10E6/uL | HEMATOCRIT [1]: 34.53% | HEMOGLOBIN [1]: 13.3 G/DL | LEUKOCYTE COUNT [1]: 13.93 x10E3/uL | LYMPHOCYTE [1]: 91.33% | MEAN CORPUSCULAR HEMOGLOBIN [1]: 23.97 pg | MEAN CORPUSCULAR HEMOGLOBIN CONCENTRATION [1]: 38.5 G/DL | MONOCYTE [1]: 0.33% | NEUTROPHIL [1]: 8% | NUCLEATED RED BLOOD CELLS [1]: 0.33 /100WBC | PLATELET COUNT [1]: 1051.33 x10E3/uL | ALANINE AMINOTRANSFERASE [1]: 66 u/L | ALBUMIN [1]: 4.1 G/DL | ALKALINE PHOSPHATASE [1]: 350 u/L | ASPARTATE AMINOTRANSFERASE [1]: 82 u/L | BLOOD UREA NITROGEN [1]: 16 mg/dL | CARBON DIOXIDE [1]: 30.33 mmol/L | CHLORIDE [1]: 99.33 MEQ/L | CHOLESTEROL [1]: 64.33 mg/dL | CREATINE PHOSPHOKINASE [1]: 209.67 u/L | CREATININE [1]: 0.14 mg/dL | GLUCOSE [1]: 156.33 mg/dL | LACTATE DEHYDROGENASE [1]: 144.67 u/L | LIPASE [1]: 19.33 u/L | PHOSPHORUS [1]: 10.4 mg/dL | POTASSIUM [1]: 5.81 MEQ/L | SODIUM [1]: 144.97 MEQ/L | TOTAL BILIRUBIN [1]: 0.1 mg/dL | TOTAL PROTEIN [1]: 5.67 G/DL | URIC ACID [1]: 0.87 mg/dL | ABSOLUTE BASOPHIL [2]: 0 CELLS/uL | ABSOLUTE EOSINOPHIL [2]: 0 CELLS/uL | ABSOLUTE LYMPHOCYTE [2]: 15467 CELLS/uL | ABSOLUTE MONOCYTE [2]: 0 CELLS/uL | ABSOLUTE SEGMENTED NEUTROPHIL [2]: 1533 CELLS/uL | BASOPHIL [2]: 0% | EOSINOPHIL [2]: 0% | ERYTHROCYTE COUNT [2]: 5.69 x10E6/uL | HEMATOCRIT [2]: 35.43% | HEMOGLOBIN [2]: 13.97 G/DL | LEUKOCYTE COUNT [2]: 17 x10E3/uL | LYMPHOCYTE [2]: 90.67% | MEAN CORPUSCULAR HEMOGLOBIN [2]: 24.53 pg | MEAN CORPUSCULAR HEMOGLOBIN CONCENTRATION [2]: 39.4 G/DL | MONOCYTE [2]: 0% | NEUTROPHIL [2]: 9.33% | NUCLEATED RED BLOOD CELLS [2]: 0 /100WBC | PLATELET COUNT [2]: 1141 x10E3/uL | ALANINE AMINOTRANSFERASE [2]: 69.67 u/L | ALBUMIN [2]: 3.77 G/DL | ALKALINE PHOSPHATASE [2]: 410 u/L | ASPARTATE AMINOTRANSFERASE [2]: 81.67 u/L | BLOOD UREA NITROGEN [2]: 14 mg/dL | CARBON DIOXIDE [2]: 29.67 mmol/L | CHLORIDE [2]: 101.67 MEQ/L | CHOLESTEROL [2]: 68 mg/dL | CREATINE PHOSPHOKINASE [2]: 240.33 u/L | CREATININE [2]: 0.16 mg/dL | GLUCOSE [2]: 161 mg/dL | LACTATE DEHYDROGENASE [2]: 103.33 u/L | LIPASE [2]: 10 u/L | PHOSPHORUS [2]: 10.33 mg/dL | SODIUM [2]: 141.27 MEQ/L | TOTAL BILIRUBIN [2]: 0.23 mg/dL | TOTAL PROTEIN [2]: 5.6 G/DL | URIC ACID [2]: 1.43 mg/dL | ABSOLUTE BASOPHIL [3]: 0 CELLS/uL | ABSOLUTE EOSINOPHIL [3]: 0 CELLS/uL | ABSOLUTE LYMPHOCYTE [3]: 11777 CELLS/uL | ABSOLUTE MONOCYTE [3]: 51 CELLS/uL | ABSOLUTE SEGMENTED NEUTROPHIL [3]: 838.67 CELLS/uL | BASOPHIL [3]: 0% | EOSINOPHIL [3]: 0% | ERYTHROCYTE COUNT [3]: 5.63 x10E6/uL | HEMATOCRIT [3]: 34.73% | HEMOGLOBIN [3]: 13.7 G/DL | LEUKOCYTE COUNT [3]: 12.67 x10E3/uL | LYMPHOCYTE [3]: 92.67% | MEAN CORPUSCULAR HEMOGLOBIN [3]: 24.33 pg | MEAN CORPUSCULAR HEMOGLOBIN CONCENTRATION [3]: 39.47 G/DL | MONOCYTE [3]: 0.33% | NEUTROPHIL [3]: 7% | NUCLEATED RED BLOOD CELLS [3]: 0 /100WBC | PLATELET COUNT [3]: 1057.67 x10E3/uL | ALANINE AMINOTRANSFERASE [3]: 95 u/L | ALBUMIN [3]: 4 G/DL | ALKALINE PHOSPHATASE [3]: 359.33 u/L | ASPARTATE AMINOTRANSFERASE [3]: 100 u/L | BLOOD UREA NITROGEN [3]: 16 mg/dL | CARBON DIOXIDE [3]: 34.67 mmol/L | CHLORIDE [3]: 101.5 MEQ/L | CHOLESTEROL [3]: 68.33 mg/dL | CREATINE PHOSPHOKINASE [3]: 177.67 u/L | CREATININE [3]: 0.13 mg/dL | GLUCOSE [3]: 165 mg/dL | LACTATE DEHYDROGENASE [3]: 96.67 u/L | LIPASE [3]: 12 u/L | PHOSPHORUS [3]: 8.93 mg/dL | POTASSIUM [3]: 5.34 MEQ/L | SODIUM [3]: 145.05 MEQ/L | TOTAL BILIRUBIN [3]: 0.1 mg/dL | TOTAL PROTEIN [3]: 5.9 G/DL | URIC ACID [3]: 0.37 mg/dL
